Numbers after ± are expanded uncertainties.
Legend:
[1] = molar heat capacity at constant pressure; xn = mol fraction of the nth substance listed; conditions: 101 kPa, Liquid, Small sample (50 mg) DSC
[2] = xn = mol fraction of the nth substance listed; conditions: 101 kPa, Liquid; for speed of sound: Pulse-echo method; for mass density: Vibrating tube method

Cc1ccccc1Cl [2-chlorotoluene] + C1CCOCC1
Conditions	mass density [kg/m3]	molar heat capacity at constant pressure [J/K/mol]	speed of sound [m/s]
[1], 298.15 K, x1 = 0.0897	–	152.82 ± 2.4	–
[1], 298.15 K, x1 = 0.1165	–	153.77 ± 2.4	–
[1], 298.15 K, x1 = 0.1429	–	154.71 ± 2.4	–
[1], 298.15 K, x1 = 0.1929	–	156.46 ± 2.4	–
[1], 298.15 K, x1 = 0.2376	–	158.01 ± 2.5	–
[1], 298.15 K, x1 = 0.2892	–	159.77 ± 2.5	–
[1], 298.15 K, x1 = 0.3218	–	160.85 ± 2.5	–
[1], 298.15 K, x1 = 0.3519	–	161.84 ± 2.5	–
[1], 298.15 K, x1 = 0.4019	–	163.44 ± 2.5	–
[1], 298.15 K, x1 = 0.4427	–	164.71 ± 2.5	–
[1], 298.15 K, x1 = 0.4817	–	165.88 ± 2.6	–
[1], 298.15 K, x1 = 0.5216	–	167.05 ± 2.6	–
[1], 298.15 K, x1 = 0.5549	–	168 ± 2.6	–
[1], 298.15 K, x1 = 0.5936	–	169.07 ± 2.6	–
[1], 298.15 K, x1 = 0.6215	–	169.81 ± 2.6	–
[1], 298.15 K, x1 = 0.6518	–	170.6 ± 2.6	–
[1], 298.15 K, x1 = 0.6902	–	171.57 ± 2.7	–
[1], 298.15 K, x1 = 0.7205	–	172.31 ± 2.7	–
[1], 298.15 K, x1 = 0.7515	–	173.04 ± 2.7	–
[1], 298.15 K, x1 = 0.7931	–	173.99 ± 2.7	–
[1], 298.15 K, x1 = 0.8156	–	174.49 ± 2.7	–
[1], 298.15 K, x1 = 0.8472	–	175.18 ± 2.7	–
[1], 298.15 K, x1 = 0.8831	–	175.93 ± 2.7	–
[1], 298.15 K, x1 = 0.9146	–	176.56 ± 2.7	–
[1], 303.15 K, x1 = 0.0897	–	154.4 ± 2.4	–
[1], 303.15 K, x1 = 0.1165	–	155.35 ± 2.4	–
[1], 303.15 K, x1 = 0.1429	–	156.28 ± 2.4	–
[1], 303.15 K, x1 = 0.1929	–	158.04 ± 2.5	–
[1], 303.15 K, x1 = 0.2376	–	159.59 ± 2.5	–
[1], 303.15 K, x1 = 0.2892	–	161.35 ± 2.5	–
[1], 303.15 K, x1 = 0.3218	–	162.44 ± 2.5	–
[1], 303.15 K, x1 = 0.3519	–	163.43 ± 2.5	–
[1], 303.15 K, x1 = 0.4019	–	165.03 ± 2.6	–
[1], 303.15 K, x1 = 0.4427	–	166.31 ± 2.6	–
[1], 303.15 K, x1 = 0.4817	–	167.49 ± 2.6	–
[1], 303.15 K, x1 = 0.5216	–	168.66 ± 2.6	–
[1], 303.15 K, x1 = 0.5549	–	169.62 ± 2.6	–
[1], 303.15 K, x1 = 0.5936	–	170.69 ± 2.6	–
[1], 303.15 K, x1 = 0.6215	–	171.44 ± 2.7	–
[1], 303.15 K, x1 = 0.6518	–	172.23 ± 2.7	–
[1], 303.15 K, x1 = 0.6902	–	173.21 ± 2.7	–
[1], 303.15 K, x1 = 0.7205	–	173.96 ± 2.7	–
[1], 303.15 K, x1 = 0.7515	–	174.7 ± 2.7	–
[1], 303.15 K, x1 = 0.7931	–	175.66 ± 2.7	–
[1], 303.15 K, x1 = 0.8156	–	176.17 ± 2.7	–
[1], 303.15 K, x1 = 0.8472	–	176.87 ± 2.7	–
[1], 303.15 K, x1 = 0.8831	–	177.63 ± 2.8	–
[1], 303.15 K, x1 = 0.9146	–	178.29 ± 2.8	–
[1], 308.15 K, x1 = 0.0897	–	156.2 ± 2.4	–
[1], 308.15 K, x1 = 0.1165	–	157.14 ± 2.4	–
[1], 308.15 K, x1 = 0.1429	–	158.07 ± 2.5	–
[1], 308.15 K, x1 = 0.1929	–	159.8 ± 2.5	–
[1], 308.15 K, x1 = 0.2376	–	161.34 ± 2.5	–
[1], 308.15 K, x1 = 0.2892	–	163.09 ± 2.5	–
[1], 308.15 K, x1 = 0.3218	–	164.17 ± 2.5	–
[1], 308.15 K, x1 = 0.3519	–	165.15 ± 2.6	–
[1], 308.15 K, x1 = 0.4019	–	166.75 ± 2.6	–
[1], 308.15 K, x1 = 0.4427	–	168.01 ± 2.6	–
[1], 308.15 K, x1 = 0.4817	–	169.19 ± 2.6	–
[1], 308.15 K, x1 = 0.5216	–	170.35 ± 2.6	–
[1], 308.15 K, x1 = 0.5549	–	171.3 ± 2.6	–
[1], 308.15 K, x1 = 0.5936	–	172.36 ± 2.7	–
[1], 308.15 K, x1 = 0.6215	–	173.11 ± 2.7	–
[1], 308.15 K, x1 = 0.6518	–	173.9 ± 2.7	–
[1], 308.15 K, x1 = 0.6902	–	174.87 ± 2.7	–
[1], 308.15 K, x1 = 0.7205	–	175.62 ± 2.7	–
[1], 308.15 K, x1 = 0.7515	–	176.36 ± 2.7	–
[1], 308.15 K, x1 = 0.7931	–	177.32 ± 2.8	–
[1], 308.15 K, x1 = 0.8156	–	177.83 ± 2.8	–
[1], 308.15 K, x1 = 0.8472	–	178.52 ± 2.8	–
[1], 308.15 K, x1 = 0.8831	–	179.3 ± 2.8	–
[1], 308.15 K, x1 = 0.9146	–	179.96 ± 2.8	–
[2], 298.15 K, x1 = 0.1156	906.77 ± 1	–	1274.6 ± 1.1
[2], 298.15 K, x1 = 0.1765	920.75 ± 1	–	1277 ± 1.1
[2], 298.15 K, x1 = 0.2342	933.65 ± 1	–	1279.3 ± 1.1
[2], 298.15 K, x1 = 0.2765	942.89 ± 1	–	1280.9 ± 1.1
[2], 298.15 K, x1 = 0.3305	954.43 ± 1	–	1282.9 ± 1.1
[2], 298.15 K, x1 = 0.3716	963.04 ± 1	–	1284.4 ± 1.1
[2], 298.15 K, x1 = 0.4235	973.69 ± 1	–	1286.2 ± 1.1
[2], 298.15 K, x1 = 0.4721	983.44 ± 1	–	1287.9 ± 1.1
[2], 298.15 K, x1 = 0.5216	993.16 ± 1	–	1289.4 ± 1.1
[2], 298.15 K, x1 = 0.5803	1004.4 ± 1	–	1291.2 ± 1.1
[2], 298.15 K, x1 = 0.6317	1014.1 ± 1	–	1292.6 ± 1.1
[2], 298.15 K, x1 = 0.6796	1022.8 ± 1	–	1293.9 ± 1.1
[2], 298.15 K, x1 = 0.7216	1030.4 ± 1	–	1294.8 ± 1.2
[2], 298.15 K, x1 = 0.7737	1039.6 ± 1	–	1296 ± 1.2
[2], 298.15 K, x1 = 0.8219	1047.9 ± 1	–	1296.8 ± 1.2
[2], 298.15 K, x1 = 0.8753	1057 ± 1	–	1297.7 ± 1.2
[2], 298.15 K, x1 = 0.9064	1062.2 ± 1	–	1298.1 ± 1.2
[2], 298.15 K, x1 = 0.9325	1066.5 ± 1	–	1298.3 ± 1.2
[2], 303.15 K, x1 = 0.1156	901.67 ± 1	–	1252.7 ± 1
[2], 303.15 K, x1 = 0.1765	915.67 ± 1	–	1255.6 ± 1.1
[2], 303.15 K, x1 = 0.2342	928.57 ± 1	–	1258.1 ± 1.1
[2], 303.15 K, x1 = 0.2765	937.81 ± 1	–	1259.9 ± 1.1
[2], 303.15 K, x1 = 0.3305	949.36 ± 1	–	1262 ± 1.1
[2], 303.15 K, x1 = 0.3716	957.97 ± 1	–	1263.7 ± 1.1
[2], 303.15 K, x1 = 0.4235	968.63 ± 1	–	1265.7 ± 1.1
[2], 303.15 K, x1 = 0.4721	978.39 ± 1	–	1267.4 ± 1.1
[2], 303.15 K, x1 = 0.5216	988.12 ± 1	–	1269 ± 1.1
[2], 303.15 K, x1 = 0.5803	999.4 ± 1	–	1271.1 ± 1.1
[2], 303.15 K, x1 = 0.6317	1009.1 ± 1	–	1272.7 ± 1.1
[2], 303.15 K, x1 = 0.6796	1017.9 ± 1	–	1274.1 ± 1.1
[2], 303.15 K, x1 = 0.7216	1025.4 ± 1	–	1275.3 ± 1.1
[2], 303.15 K, x1 = 0.7737	1034.7 ± 1	–	1276.7 ± 1.2
[2], 303.15 K, x1 = 0.8219	1043 ± 1	–	1277.8 ± 1.2
[2], 303.15 K, x1 = 0.8753	1052.1 ± 1	–	1279 ± 1.2
[2], 303.15 K, x1 = 0.9064	1057.3 ± 1	–	1279.5 ± 1.2
[2], 303.15 K, x1 = 0.9325	1061.6 ± 1	–	1279.9 ± 1.2
[2], 308.15 K, x1 = 0.1156	896.57 ± 1	–	1230.7 ± 1
[2], 308.15 K, x1 = 0.1765	910.57 ± 1	–	1233.7 ± 1.1
[2], 308.15 K, x1 = 0.2342	923.48 ± 1	–	1236.6 ± 1.1
[2], 308.15 K, x1 = 0.2765	932.73 ± 1	–	1238.6 ± 1.1
[2], 308.15 K, x1 = 0.3305	944.29 ± 1	–	1241 ± 1.1
[2], 308.15 K, x1 = 0.3716	952.9 ± 1	–	1242.9 ± 1.1
[2], 308.15 K, x1 = 0.4235	963.56 ± 1	–	1245 ± 1.1
[2], 308.15 K, x1 = 0.4721	973.33 ± 1	–	1247 ± 1.1
[2], 308.15 K, x1 = 0.5216	983.08 ± 1	–	1249 ± 1.1
[2], 308.15 K, x1 = 0.5803	994.39 ± 1	–	1251.1 ± 1.1
[2], 308.15 K, x1 = 0.6317	1004.1 ± 1	–	1252.8 ± 1.1
[2], 308.15 K, x1 = 0.6796	1012.9 ± 1	–	1254.5 ± 1.1
[2], 308.15 K, x1 = 0.7216	1020.5 ± 1	–	1255.7 ± 1.1
[2], 308.15 K, x1 = 0.7737	1029.7 ± 1	–	1257.3 ± 1.2
[2], 308.15 K, x1 = 0.8219	1038.1 ± 1	–	1258.6 ± 1.2
[2], 308.15 K, x1 = 0.8753	1047.2 ± 1	–	1260 ± 1.2
[2], 308.15 K, x1 = 0.9064	1052.4 ± 1	–	1260.7 ± 1.2
[2], 308.15 K, x1 = 0.9325	1056.7 ± 1	–	1261.4 ± 1.2

From the NIST ThermoML archive (doi:10.1021/je400722h)
